# Legend:
# HOXA and CDX genes = test: RT-PCR of HOXA and CDX genes in differentiating hESC cultures supplemented with SB, CHIR or SB/CHIR; format: cell-based, human; conditions: added from differentiation days 2 to 4; RT-PCR at d4 and d7
# Method: Total RNA was prepared from ES cells and dissociated EBs using the Qiagen RNeasy kit or the Bioline Isolate II RNA Mini Kit according to the manufacturers' instructions. cDNA was reverse transcribed using random hexamer priming and Superscript III (Invitrogen) or Tetro (Bioline) cDNA synthesis kits as specified by the manufacturer. Human RUNX1 isoform specific primers (Table 1) were based on those designed for mouse Runx1 previously. For other genes, TaqMan gene expression probes and reagents (Applied Biosystems) were used for quantitative real-time PCR analysis and GAPDH was used as the reference gene to normalize data.
# The HES3 and H9 human embryonic stem cell lines used in these studies were obtained from ES Cell International (now owned by Biotime Inc) and WiCell. The human ESC work was approved by the Monash Medical Centre and Royal Children's Hospital Human Research Ethics Committees. Culture and enzymatic passaging of hESC lines was performed as reported in Ng et al. Nature Protocols 3, 768-776 (2008). […] Brightfield and fluorescence images comparing RUNX1C^GFP/w with RUNX1C^GFP/GFP cell cultures shown in FIG. 1b were representative of 3 independent experiments. […]
# [1] = test system: anterior and posterior HOXA genes; test: HOXA gene expression in hPSCs with EC23 and/or SB CHIR (FIG. 29); format: cell-based, human; conditions: d2-4
# Method: hPSCs were differentiated in medium supplemented with CHIR99021, BMP4, VEGF, SCF, ACTIVIN A and FGF2 (denoted CH BVSAF in FIG. 29) from d0-4, or with an additional pulse of SB431542 and CHIR99021 (denoted SB CHIR in FIG. 29) from d2-4. Cultures also were treated with the retinoic acid analogue EC23 at 0, 10^−5 M or 10^−7 M concentrations from d2-4 (denoted 0, 10-5 and 10-7, respectively in FIG. 29). […] Gene expression was normalized to GAPDH and is shown in arbitrary units in FIG. 29.
SMILES,HOXA gene expression compared with control cultures (HOXA and CDX genes),effectiveness on HOXA gene induction ([1]; 10^−5 M),effectiveness on HOXA gene induction ([1]; 10^−7 M)
"Cc1c[nH]c(-c2cnc(NCCNc3ccc(C#N)cn3)nc2-c2ccc(Cl)cc2Cl)n1 [CHIR, CHIR99021]",increased HOXA9 and HOXA10 expression,–,–
CC1(C)CCC(C)(C)c2cc(C#Cc3ccc(C(=O)O)cc3)ccc21 [EC23],–,effective,effective
"NC(=O)c1ccc(-c2nc(-c3ccc4c(c3)OCO4)c(-c3ccccn3)[nH]2)cc1 [SB, SB431542]","increased HOXA3, HOXA7 and HOXA9 expression",–,–

# From patent US20190144828A1, “HAEMATOPOIETIC STEM/PROGENITOR CELLS” (priority 2016, published 2019)
